According to patent US4284619A, “Esters useful as brain imaging agents” (Medi-Physics, Inc., priority 1978, dated 1981):
Values belong to the compound of their own block, whether it stands above or below them.

Tests used:
[1] = Biodistribution bioassay of I-123-labeled compounds in rats, 5 minutes after tail vein injection (blood, brain, heart, stomach activity); type: in vivo, Female Sprague-Dawley rats; conditions: rat; for Percent Dose/g. at 5 min. Blood / Percent Dose/g. at 5 min. Brain / Percent Dose/g. at 5 min. Heart: 0.05 to 1.0 mCi, I-123-labeled
Protocol: Bioassays were performed utilizing compounds from the foregoing examples labeled with I-123 in accordance with the method described in Example 11. Female Sprague-Dawley rats weighing approximately 150 g. were anesthetized with sodium pentobarbital and were injected in a tail vein with from 0.05 to 1.0 mCi (in a volume of 0.2 to 0.5 ml) of the I-123-labeled compound. Two specimens were utilized for each test.
The animals were sacrificed at 5 minutes post injection, the tails discarded and the amount of activity in various organs determined. Each organ was counted at a standardized geometry with a thallium iodide-activated sodium iodide crystal scintillation counter adjusted for the 159 keV emission of I-123. The organs were also weighed to one thousandth of a gram and the activity calculated as a percent of administered dose per gram organ weight.
The ratio of brain-to-blood activity was calculated as a percent of administered dose per gram. The important determinations are the amount of activity in the brain and the brain/blood ratio. The amount of activity in the stomach is related to loss of the I-123-label. For comparative purposes, I-123 antipyrine was utilized as a standard.

[2] = prior art brain imaging agent; cited from earlier work
[3] = i.v. tail vein, ratio of percent dose per gram
[4] = i.v. tail vein, stomach, related to loss of the I-123-label

Compound: CCOC(=O)c1ccccc1[123I] [Example 2, ethyl o-iodobenzoate]
- Percent Dose in Stomach ([1]; in vivo, iv): 0.81 Percent Dose
- Ratio Brain/Blood ([1]; in vivo, iv): 0.14
- Ratio Heart/Blood ([1]; in vivo, iv): 0.59

Compound: O=C(Oc1ccccc1)c1ccccc1[123I] [Example 6, phenyl o-iodobenzoate]
- Percent Dose in Stomach ([1]; in vivo, iv): 0.92 Percent Dose
- Ratio Brain/Blood ([1]; in vivo, iv): 0.20
- Ratio Heart/Blood ([1]; in vivo, iv): 0.60

Compound: glyceryl o-iodobenzoate [Example 5]
- Percent Dose/g. at 5 min. Blood ([1]; i.v. tail vein): 1.67 Percent Dose/g.
- Percent Dose/g. at 5 min. Brain ([1]; i.v. tail vein): 0.73 Percent Dose/g.
- Percent Dose/g. at 5 min. Heart ([1]; i.v. tail vein): 1.12 Percent Dose/g.
- Ratio Brain/Blood [1, 3]: 0.43
- Ratio Heart/Blood [1, 3]: 0.67
- Percent Dose in Stomach [1, 4]: 0.79 Percent Dose

Compound: pyridoxyl o-iodobenzoate [Example 9]
- Percent Dose/g. at 5 min. Blood ([1]; i.v. tail vein): 1.61 Percent Dose/g.
- Percent Dose/g. at 5 min. Brain ([1]; i.v. tail vein): 0.31 Percent Dose/g.
- Percent Dose/g. at 5 min. Heart ([1]; i.v. tail vein): 1.02 Percent Dose/g.
- Ratio Brain/Blood [1, 3]: 0.19
- Ratio Heart/Blood [1, 3]: 0.63
- Percent Dose in Stomach [1, 4]: 0.93 Percent Dose

Now from value to compound, other results behind:

- Percent Dose in Stomach ([1]; in vivo, iv): 1.46 Percent Dose
- Ratio Brain/Blood ([1]; in vivo, iv): 0.25
- Ratio Heart/Blood ([1]; in vivo, iv): 0.65
Compound: O=C(OCc1ccccc1)c1ccccc1[123I] [Example 7, benzyl o-iodobenzoate]

- Percent Dose in Stomach ([1]; in vivo, iv): 0.77 Percent Dose
- Ratio Brain/Blood ([1]; in vivo, iv): 0.08
- Ratio Heart/Blood ([1]; in vivo, iv): 0.51
Compound: O=C(Oc1cccc(O)c1O)c1ccccc1[123I] [Example 8, pyrogallyl o-iodobenzoate]

- Percent Dose in Stomach ([1]; in vivo, iv): 0.92 Percent Dose
- Ratio Brain/Blood ([1]; in vivo, iv): 0.12
- Ratio Heart/Blood ([1]; in vivo, iv): 0.53
Compound: CCCCCCCCCCCCCCCCCCOC(=O)c1ccccc1[123I] [Example 10, octadecyl o-iodobenzoate]

- Percent Dose in Stomach ([1]; in vivo, iv): 2.23 Percent Dose
Compound: Cc1c([123I])c(=O)n(-c2ccccc2)n1C [^I 123-iodoantipyrine, 4-iodoantipyrine, reference compound]
- loss of the iodine label in the brain [2]: significant loss of the iodine label in the brain
